Measured values from patent US9840509B2, “Heterocyclic compounds” (CADILA HEALTHCARE LIMITED, priority 2014, dated 2017).

Columns and labels:
[1] = molecular target: T1, recombinant purified human BTK (Homo sapiens, UniProt Q06187); test: In vitro BTK kinase assay on ADP Glo platform; format: biochemical; details: 2 hr room temperature, read-out: In-vitro BTK inhibitory activity: IC50
T1 construct: purchased SignalChem, USA
Summary of the method: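 Recombinant human BTK (3 ng/reaction) with compound dilutions in Tris pH 7.5, MgCl2/MnCl2, BSA, DTT; started with 50 µM ATP (final) and polyGln4Tyr1 substrate, 2 h at room temperature. ADP formed detected by ADP-Glo luminescence; IC50 by nonlinear fit versus uninhibited enzyme as 100%.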

[2] = molecular target: T2, CYP 1A2 (Homo sapiens, UniProt P05177); test: CYP inhibition in human liver microsomes, 1A2; format: in vitro ADME; details: pH 7.4, @ 10 μM concn
T2 construct: from tissue; host or cells: human liver microsomes
T2 sequence (P05177 1-516): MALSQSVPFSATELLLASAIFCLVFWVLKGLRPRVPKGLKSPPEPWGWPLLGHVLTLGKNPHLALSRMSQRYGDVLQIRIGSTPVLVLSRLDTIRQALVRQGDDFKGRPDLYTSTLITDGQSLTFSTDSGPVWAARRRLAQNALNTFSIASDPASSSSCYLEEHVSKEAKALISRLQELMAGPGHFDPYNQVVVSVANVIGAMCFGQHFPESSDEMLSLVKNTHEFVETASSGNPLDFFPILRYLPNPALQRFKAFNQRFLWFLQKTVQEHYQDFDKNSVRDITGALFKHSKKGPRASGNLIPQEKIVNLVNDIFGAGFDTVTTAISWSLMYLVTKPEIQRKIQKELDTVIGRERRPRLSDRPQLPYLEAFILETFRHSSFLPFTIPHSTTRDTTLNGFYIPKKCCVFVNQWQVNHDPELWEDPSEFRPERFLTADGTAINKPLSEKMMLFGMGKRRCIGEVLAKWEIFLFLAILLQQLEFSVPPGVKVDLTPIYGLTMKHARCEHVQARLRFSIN
Summary of the method: (§1)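 Human liver microsomes in 100 mM phosphate pH 7.4 with CYP-specific probe substrate were incubated with test compound at […] and 10 μM, started with 1 mM NADPH at 37° C. Reactions were stopped with acetonitrile, and marker-reaction metabolites were quantified by LC-MS/MS. Final solvent was ≤0.2%.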

[3] = molecular target: T3, CYP 2C8 (Homo sapiens, UniProt P10632); test: CYP inhibition in human liver microsomes, 2C8; format: in vitro ADME; details: pH 7.4, @ 10 μM concn
T3 construct: from tissue; host or cells: human liver microsomes
T3 sequence (P10632 1-490): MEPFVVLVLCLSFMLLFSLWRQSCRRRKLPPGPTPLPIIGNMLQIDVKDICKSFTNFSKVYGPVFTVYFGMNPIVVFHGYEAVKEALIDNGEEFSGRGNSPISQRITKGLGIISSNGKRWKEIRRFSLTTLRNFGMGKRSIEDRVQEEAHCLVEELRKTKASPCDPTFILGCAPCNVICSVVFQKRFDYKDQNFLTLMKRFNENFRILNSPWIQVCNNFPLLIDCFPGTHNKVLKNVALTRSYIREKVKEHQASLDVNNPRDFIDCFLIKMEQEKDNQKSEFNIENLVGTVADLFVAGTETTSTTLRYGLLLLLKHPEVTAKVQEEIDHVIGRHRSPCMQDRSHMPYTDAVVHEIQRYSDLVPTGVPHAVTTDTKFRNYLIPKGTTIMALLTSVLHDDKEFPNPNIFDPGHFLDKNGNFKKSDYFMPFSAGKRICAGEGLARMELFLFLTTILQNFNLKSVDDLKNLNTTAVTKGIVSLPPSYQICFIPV
Summary of the method: as §1

[4] = molecular target: T4, CYP 2C9 (Homo sapiens, UniProt P11712); test: CYP inhibition in human liver microsomes, 2C9; format: in vitro ADME; details: pH 7.4, @ 10 μM concn
T4 construct: from tissue; host or cells: human liver microsomes
Summary of the method: as §1

[5] = molecular target: T5, CYP 2C19 (Homo sapiens, UniProt P33261); test: CYP inhibition in human liver microsomes, 2C19; format: in vitro ADME; details: pH 7.4, @ 10 μM concn
T5 construct: from tissue; host or cells: human liver microsomes
Summary of the method: as §1

[6] = molecular target: T6, CYP 2D6 (Homo sapiens, UniProt P10635); test: CYP inhibition in human liver microsomes, 2D6; format: in vitro ADME; details: pH 7.4, @ 10 μM concn
T6 construct: from tissue; host or cells: human liver microsomes
Summary of the method: as §1

[7] = molecular target: T7, CYP 3A4 (Homo sapiens, UniProt P08684); test: CYP inhibition in human liver microsomes, 3A4; format: in vitro ADME; details: pH 7.4, @ 10 μM concn
T7 construct: from tissue; host or cells: human liver microsomes
Summary of the method: as §1

T5 sequence (P33261 whole entry): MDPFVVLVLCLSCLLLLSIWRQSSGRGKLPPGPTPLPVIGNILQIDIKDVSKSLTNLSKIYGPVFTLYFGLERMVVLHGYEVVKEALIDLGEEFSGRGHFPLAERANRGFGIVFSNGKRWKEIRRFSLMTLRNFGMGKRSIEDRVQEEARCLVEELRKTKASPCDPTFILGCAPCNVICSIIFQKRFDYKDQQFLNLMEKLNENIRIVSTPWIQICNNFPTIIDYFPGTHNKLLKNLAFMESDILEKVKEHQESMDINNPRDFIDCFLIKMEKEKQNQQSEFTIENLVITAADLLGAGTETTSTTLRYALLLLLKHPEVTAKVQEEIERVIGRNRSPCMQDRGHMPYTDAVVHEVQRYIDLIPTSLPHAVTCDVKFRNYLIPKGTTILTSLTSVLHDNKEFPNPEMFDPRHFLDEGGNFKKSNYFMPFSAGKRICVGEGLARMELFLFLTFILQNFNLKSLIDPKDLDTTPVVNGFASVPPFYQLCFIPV
T7 sequence (P08684 whole entry): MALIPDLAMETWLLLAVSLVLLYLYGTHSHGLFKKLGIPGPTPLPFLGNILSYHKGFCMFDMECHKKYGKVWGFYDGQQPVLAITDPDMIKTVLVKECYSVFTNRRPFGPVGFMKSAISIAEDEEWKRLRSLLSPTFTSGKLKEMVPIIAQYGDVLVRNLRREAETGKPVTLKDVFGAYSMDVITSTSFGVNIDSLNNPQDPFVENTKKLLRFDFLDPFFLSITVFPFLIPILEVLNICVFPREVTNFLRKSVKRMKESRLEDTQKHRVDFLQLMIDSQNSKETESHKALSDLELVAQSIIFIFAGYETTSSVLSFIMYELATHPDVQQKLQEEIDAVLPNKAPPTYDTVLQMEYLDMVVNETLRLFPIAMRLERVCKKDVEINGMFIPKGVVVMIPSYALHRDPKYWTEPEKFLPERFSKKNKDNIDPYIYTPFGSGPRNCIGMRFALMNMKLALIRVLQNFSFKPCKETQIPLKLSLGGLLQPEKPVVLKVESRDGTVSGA
T1 sequence (Q06187 whole entry): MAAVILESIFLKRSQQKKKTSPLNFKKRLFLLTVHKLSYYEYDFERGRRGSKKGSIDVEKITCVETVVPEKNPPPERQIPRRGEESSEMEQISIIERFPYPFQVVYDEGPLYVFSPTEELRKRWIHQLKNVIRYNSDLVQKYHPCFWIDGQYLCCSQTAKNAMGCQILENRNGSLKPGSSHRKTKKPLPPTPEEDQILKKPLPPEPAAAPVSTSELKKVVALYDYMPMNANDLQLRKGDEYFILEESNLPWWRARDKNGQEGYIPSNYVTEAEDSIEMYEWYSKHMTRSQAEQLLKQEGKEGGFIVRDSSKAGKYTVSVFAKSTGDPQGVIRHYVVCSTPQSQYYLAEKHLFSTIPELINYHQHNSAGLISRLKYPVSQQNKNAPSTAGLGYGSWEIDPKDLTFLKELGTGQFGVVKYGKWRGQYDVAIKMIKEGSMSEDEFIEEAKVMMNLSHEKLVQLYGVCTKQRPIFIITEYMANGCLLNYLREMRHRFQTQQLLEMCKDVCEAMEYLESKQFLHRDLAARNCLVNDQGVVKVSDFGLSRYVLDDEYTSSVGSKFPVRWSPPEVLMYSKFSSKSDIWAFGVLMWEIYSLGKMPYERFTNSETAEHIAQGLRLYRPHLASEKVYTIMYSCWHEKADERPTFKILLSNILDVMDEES
T4 sequence (P11712 whole entry): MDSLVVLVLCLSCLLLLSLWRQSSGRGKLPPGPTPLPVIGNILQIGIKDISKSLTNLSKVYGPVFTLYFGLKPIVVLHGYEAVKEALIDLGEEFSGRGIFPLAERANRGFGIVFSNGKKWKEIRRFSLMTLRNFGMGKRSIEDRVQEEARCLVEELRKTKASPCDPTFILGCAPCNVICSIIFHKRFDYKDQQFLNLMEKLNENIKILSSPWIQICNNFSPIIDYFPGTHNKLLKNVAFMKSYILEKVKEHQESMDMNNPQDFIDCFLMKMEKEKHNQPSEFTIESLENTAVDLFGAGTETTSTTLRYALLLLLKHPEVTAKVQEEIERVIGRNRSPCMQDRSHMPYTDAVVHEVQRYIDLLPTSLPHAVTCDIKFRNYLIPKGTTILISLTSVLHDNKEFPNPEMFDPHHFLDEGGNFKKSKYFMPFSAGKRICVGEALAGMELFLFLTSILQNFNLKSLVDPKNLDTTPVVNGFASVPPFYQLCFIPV
T6 sequence (P10635 whole entry): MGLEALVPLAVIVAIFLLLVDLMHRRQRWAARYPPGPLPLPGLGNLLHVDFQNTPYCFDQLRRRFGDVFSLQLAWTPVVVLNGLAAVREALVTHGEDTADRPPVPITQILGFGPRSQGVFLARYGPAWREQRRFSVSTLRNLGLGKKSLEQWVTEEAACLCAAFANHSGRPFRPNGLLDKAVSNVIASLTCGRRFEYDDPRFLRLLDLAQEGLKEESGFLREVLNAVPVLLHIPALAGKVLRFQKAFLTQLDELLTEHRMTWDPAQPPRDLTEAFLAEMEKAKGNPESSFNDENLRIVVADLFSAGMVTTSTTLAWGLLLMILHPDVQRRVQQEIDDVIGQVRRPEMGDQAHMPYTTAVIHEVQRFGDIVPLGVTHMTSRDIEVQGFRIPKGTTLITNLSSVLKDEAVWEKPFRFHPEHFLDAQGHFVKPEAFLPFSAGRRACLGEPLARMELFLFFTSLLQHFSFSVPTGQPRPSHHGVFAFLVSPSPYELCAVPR

SMILES	IC50 [1] [nM]	inhibition at 10 μM [2] [%]	inhibition at 10 μM [3] [%]	inhibition at 10 μM [4] [%]	inhibition at 10 μM [5] [%]	inhibition at 10 μM [6] [%]	inhibition at 10 μM [7] [%]
C=CC(=O)N1CC2CC(n3nc(-c4ccc(Oc5ccccn5)cc4)c4c(N)ncnc43)CC2C1 (stereo not drawn) [Compound 43, 1-(5-(4-amino-3-(4-(pyridin-2-yloxy)phenyl)-1H-pyrazolo[3,4-d]pyrimidin-1-yl)hexahydrocyclopenta[c]pyrrol-2(1H)-yl)prop-2-en-1-one]	2	< 50	< 50	< 50	< 50	< 50	< 50
CN(C)C/C=C/C(=O)N1CC2CC(n3nc(-c4ccc(C(=O)Nc5ccccn5)cc4)c4c(N)ncnc43)CC2C1 (stereo not drawn) [Compound 44, (E)-4-(4-amino-1-(2-(4-(dimethylamino)but-2-enoyl)octahydrocyclopenta [c]pyrrol-5-yl)-1H-pyrazolo[3,4-d]pyrimidin-3-yl)-N-(pyridin-2-yl) benzamide]	1.4	< 50	< 50	< 50	< 50	< 50	< 50
Cc1ccnc(NC(=O)c2ccc(-c3nn(C4CC5CN(C(=O)/C=C/CN(C)C)CC5C4)c4ncnc(N)c34)cc2)c1 (stereo not drawn) [Compound 45, (E)-4-(4-amino-1-(2-(4-(dimethylamino)but-2-enoyl)octahydrocyclopenta[c]pyrrol-5-yl)-1H-pyrazolo[3,4-d]pyrimidin-3-yl)-N-(4-methylpyridin-2-yl) benzamide]	10	> 50	< 50	< 50	< 50	< 50	< 50
CN(C)C/C=C/C(=O)N1CC2CC(n3nc(-c4ccc(Oc5ccccn5)cc4)c4c(N)ncnc43)CC2C1 (stereo not drawn) [Compound 47, (E)-1-(5-(4-amino-3-(4-(pyridin-2-yloxy)phenyl)-1H-pyrazolo[3,4-d]pyrimidin-1-yl)hexahydrocyclopenta[c]pyrrol-2(1H)-yl)-4-(dimethylamino)but-2-en-1-one]	3	< 50	< 50	< 50	< 50	< 50	< 50
CN(C)C/C=C/C(=O)N1CC2CC(n3nc(-c4ccc(C(=O)Nc5cnccn5)cc4)c4c(N)ncnc43)CC2C1 (stereo not drawn) [Compound 49, (E)-4-(4-amino-1-(2-(4-(dimethylamino)but-2-enoyl)octahydrocyclopenta [c]pyrrol-5-yl)-1H-pyrazolo[3,4-d]pyrimidin-3-yl)-N-(pyrazin-2-yl)benzamide]	2.5	< 50	< 50	< 50	< 50	< 50	< 50
CO/C(=N\c1cc(C)ccn1)c1ccc(-c2nn(C3CC4CN(C(=O)/C=C/CN(C)C)CC4C3)c3ncnc(N)c23)cc1 (stereo not drawn) [Compound 50, (Z)-methyl 4-(4-amino-1-(2-((E)-4-(dimethylamino)but-2-enoyl)octahydrocyclopenta[c]pyrrol-5-yl)-1H-pyrazolo[3,4-d]pyrimidin-3-yl)-N-(4-methylpyridin-2-yl) benzimidate]	19	< 50	< 50	< 50	< 50	> 50	> 50
CN(C)C/C=C/C(=O)N1CC2CC(n3nc(-c4ccc(C(=O)Nc5cc(C(F)(F)F)ccn5)cc4)c4c(N)ncnc43)CC2C1 (stereo not drawn) [Compound 51, (E)-4-(4-amino-1-(2-(4-(dimethylamino)but-2-enoyl)octahydrocyclopenta [c]pyrrol-5-yl)-1H-pyrazolo[3,4-d]pyrimidin-3-yl)-N-(4-(trifluoromethyl)pyridine-2-yl)benzamide]	100	< 50	> 50	> 50	< 50	< 50	> 50
C=CC(=O)N1CC2CC(n3nc(-c4ccc(Oc5cccnc5)cc4)c4c(N)ncnc43)CC2C1 (stereo not drawn) [Compound 52, 1-(5-(4-amino-3-(4-(pyridin-3-yloxy)phenyl)-1H-pyrazolo[3,4-d]pyrimidin-1-yl)hexahydrocyclopenta[c]pyrrol-2(1H)-yl)prop-2-en-1-one]	162	> 50	< 50	< 50	> 50	< 50	> 50
CN(C)C/C=C/C(=O)N1CC2CC(n3nc(-c4ccc(Oc5cccnc5)cc4)c4c(N)ncnc43)CC2C1 (stereo not drawn) [Compound 53, (E)-1-(5-(4-amino-3-(4-(pyridin-3-yloxy)phenyl)-1H-pyrazolo[3,4-d]pyrimidin-1-yl)hexahydrocyclopenta[c]pyrrol-2(1H)-yl)-4-(dimethylamino)but-2-en-1-one]	10	< 50	< 50	< 50	< 50	< 50	> 50
Cc1ccnc(N(C)C(=O)c2ccc(-c3nn(C4CC5CN(C(=O)/C=C/CN(C)C)CC5C4)c4ncnc(N)c34)cc2)c1 (stereo not drawn) [Compound 55, (E)-4-(4-amino-1-(2-(4-(dimethylamino)but-2-enoyl)octahydrocyclopenta [c]pyrrol-5-yl)-1H-pyrazolo[3,4-d]pyrimidin-3-yl)-N-methyl-N-(4-methylpyridin-2-yl)benzamide]	80	< 50	> 50	> 50	> 50	< 50	> 50
CN(C)C/C=C/C(=O)N1CC2CC(n3nc(-c4ccc(-c5nnc(-c6cnccn6)s5)cc4)c4c(N)ncnc43)CC2C1 (stereo not drawn) [Compound 56, (E)-1-(5-(4-amino-3-(4-(5-(pyrazin-2-yl)-1,3,4-thiadiazol-2-yl)phenyl)-1H-pyrazolo[3,4-d]pyrimidin-1-yl)hexahydrocyclopenta[c]pyrrol-2(1H)-yl)-4-(dimethylamino)but-2-en-1-one]	50	> 50	> 50	> 50	< 50	< 50	> 50
CN(C)C/C=C/C(=O)N1CC2CC(n3nc(-c4ccc(-c5nnc(-c6ccccn6)o5)cc4)c4c(N)ncnc43)CC2C1 (stereo not drawn) [Compound 57, (E)-1-(5-(4-amino-3-(4-(5-(pyridin-2-yl)-1,3,4-oxadiazol-2-yl)phenyl)-1H-pyrazolo[3,4-d]pyrimidin-1-yl)hexahydrocyclopenta[c]pyrrol-2(1H)-yl)-4-(dimethylamino)but-2-en-1-one]	100	< 50	> 50	> 50	< 50	< 50	> 50
